This note sets out measurements from US10968214B2, “KRas G12C inhibitors” (Eli Lilly and Company, priority 2018, dated 2021).

Structures are written as SMILES. Where two headings read alike, the source gives them in different places.

One experiment relates to HCC827. Description: CellTiterGlo Cell Proliferation Assay, HCC827. Type of experiment: cell-based. As to conditions: Homo sapiens, KRas wild type, lung, 96 hr. The protocol:
(§1) A panel of tumor cell lines harboring KRas G12C or other KRas mutations are collected (Table 6). All cell lines are from ATCC or other sources indicated.
(§2) Typically cells are cultured in RPMI1640 or Dulbecco's modified Eagle's medium (DMEM, GIBCO) supplemented with 10% FBS (GIBCO, Invitrogen). For 2D culture cells (4×10^3/well) maintained in growth medium described above, are plated onto 96 well tissue culture plates Corning® Cat. 3603) a day before the treatment. For 3D culture 8000 cells/well are seeded onto 96 well ultra-low attachment tissue culture plates (Corning, #3474). The cells are treated compound for 96 hr, and then are analyzed for viability using the CellTiterGlo® Luminescent Cell Viability Assay® (Promega #G7572 for 2D and Promega #G9683 for 3D cultures) according to manufacturer's instructions and an EnVision™ plate reader. Nonlinear regression and sigmoidal dose-response curves are used to calculate the half maximal inhibitory concentration (IC50) with GraphPad Prism 4® software.
A general note: Cellular ATP, detected with luciferase, serves as a proxy for viable cell number.

For another experiment, the target named is KRas G12C (Homo sapiens, UniProt P01116, G12C). Description: KRas G12C Probe Occupancy TR-FRET Assay. The format is binding. As to conditions: read-out: IC50. Here is the method: Inhibitors are tested in dose response format from 10 mM stocks in 100% DMSO. The Labycyte Echo® 555 is used to dilute and transfer 100 nL per well containing a 10 point, 2.8-fold serial dilution to an assay plate. […] The signal ratio (em at 665/em at 615) is converted to percent inhibition using the following equation: % Inhibition=100−[(Test Compound Signal−Median Minimum Signal)/(Median Maximum Signal−Median Minimum Signal)×100].
KRas G12C, sequence (P01116 1-188 isoform P01116-2 G12C): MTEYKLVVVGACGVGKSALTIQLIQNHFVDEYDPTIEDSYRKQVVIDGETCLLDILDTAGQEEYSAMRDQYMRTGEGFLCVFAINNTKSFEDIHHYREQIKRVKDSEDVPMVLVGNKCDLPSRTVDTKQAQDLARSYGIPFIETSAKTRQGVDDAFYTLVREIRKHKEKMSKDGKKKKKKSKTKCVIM

The test system of a further experiment is LXFA-983L. Description: Combination 4 day growth assay (Cell TiterGlo), LXFA-983L. The format is cell-based. The conditions noted are these: LXFA 983L, 96 h, single treatment, read-out: Absolute IC50. Here is the method:
Cell lines for this study are obtained from ATCC and grown under ATCC recommended conditions, except for LXFA-983L, which is obtained from Oncotest/Charles Rivers Laboratories, Wilmington, Mass. and D122-96, which is obtained from L. Eisenbach (Weizman Institute of Science, Rehovot, Israel)—both grown under recommended conditions. […] The proliferation assay is performed as a 4 day growth assay using Cell TiterGlo® as the readout. Briefly, cells are plated in 96-well cell culture plates and allowed to adhere overnight at 37° C. The following day, cells are treated with compounds, either single treatments or combination treatments. First, the testing compounds are serially diluted in DMSO, followed by dilution into media as a 5× concentration with 1% DMSO, and finally added to cells in media to dilute to 1×. The cells are incubated at 37° C. for 4 more days. At the end of the incubation period, Cell TiterGlo® reagent is mixed and added to the wells. After 10 minutes, the luminescence is read by a Perkin Elmer Envision instrument. Absolute IC50 values generated by a 4-parameter logistics model for the single and combination treatments are generated, followed by combination indexes for each combination treatment and cell line. The combination IC50 values are adjusted based on the total concentration of each compound when added together. […] The combination index (CI) measures the degree to which the potency of a combination therapy differs from the expected-if-additive potency and is based on the Loewe definition of additivity.
[formula] Where • CAy and CBy are the concentrations of therapies A and B that produce an effect, y, when given in combination • ICAy and ICBy are the concentrations of A and B that produce an effect, y, when given individually The biological interpretation of the combination index is as follows: synergistic if the combination index <0.5, additive if the combination index is between 0.5 and 2, and antagonistic if the combination index is >2.

The test system of another experiment is HCC44 xenograft. Description: Anti-tumor growth activity, HCC44 lung xenograft. Type of experiment: in vivo. The conditions noted are these: 28 Day, negative = regression.
For another experiment, the system named is H441. Description: CellTiterGlo Cell Proliferation Assay, H441. Type of experiment: cell-based. As to conditions: Homo sapiens, NCI-H441, KRas G12V, lung, 96 hr. The protocol:
as §1, §2

Another experiment deals with Calu-6. Description: CellTiterGlo Cell Proliferation Assay, Calu-6. Type of experiment: cell-based. As to conditions: Homo sapiens, KRas Q61K, lung, 96 hr. The protocol:
as §1, §2

The mark [1] stands for this setting: read-out: IC50 (μM) in 2 D cell proliferation.
Where [2] appears, read: read-out: IC50 (μM) in 3 D spheroid cell proliferation.

As to `C=CC(=O)N1CCN(c2ncnc3c(F)c(-c4ccc(F)c5sc(N)nc45)c(Cl)cc23)CC1` [Example 1, 1-{4-[7-(2-Amino-7-fluoro-1,3-benzothiazol-4-yl)-6-chloro-8-fluoroquinazolin-4-yl]piperazin-1-yl}prop-2-en-1-one], the IC50 with HCC827 (setting [1]) turned out to be 18.9 µM; with HCC827 (setting [2]), 4.63 µM; at KRas G12C (5 min incubation), 0.025 µM; on KRas G12C (60 min incubation), 0.024 µM; in the experiment with LXFA-983L, 2.59 µM; with H441 (setting [1]), 16.5 µM. Besides, the IC50 worked out at 7.89 µM in the experiment on H441 (setting [2]), 12.1 µM in the experiment on Calu-6 (setting [1]) and 19.5 µM in the experiment on Calu-6 (setting [2]). In addition, the “Tumor Growth Inhibition (%) or Regression (−%)” value in the experiment with HCC44 xenograft (15 mg/kg BID) is on record as 93.4%; in the experiment on HCC44 xenograft (30 mg/kg BID), −16.5%; in the experiment on HCC44 xenograft (30 mg/kg QD), 85.4%.
